Experimental data as given in patent publication US20220079993A1, “NON-NATURALLY OCCURRING THERMOGENIC ADIPOCYTES, METHODS OF MAKING, AND METHODS OF USE THEREOF” (University of Georgia Research Foundation, Inc., priority 2019, published 2022).
Structures can show the parent of a compound that is named as a salt. Where two headings read alike, the source gives them in different places.

Legend:
[1] = system: beige adipocytes; test: Lipolysis validation assays of primary hits at three concentrations; format: cell-based, human; design: % of Control (1) / % of Control (2) / % of Control (3) / % of Control (4): unit of the concentration uncertain; conditions: for activity at 2.2 µM / activity at 6.7 µM / activity at 20 µM / activity at 2200 µM: Homo sapiens, Adipocyte, 24 h; for activity at 2.2 µM: Conc. 2.2 µM; for activity at 6.7 µM: Conc. 6.7 µM; for activity at 20 µM: Conc. 20 µM; for activity at 2200 µM: Conc. 2.2 mM
Description: ADSCs were seeded at 5000 cell/cm^2 in 12-well plates, grown for 5 days and then induced to differentiate into GC for 20 days. Prior to the assay, cells were washed in DPBS twice and then incubated with DMEM with 2% fatty-acid free BSA (Santa Crus, sc-500949) and Triascin C (5 μM). Cells were treated with forskolin (20 μM) for indicated time periods and supernatant samples were collected. Lipolysis assay was performed with free glycerol reagent (Sigma, F6428-40ML), according to manufacturer instructions.
Lipolysis assays were performed after 24 hours of drug treatment by measuring free glycerol released in the 384-well format, using the procedure described above. Absorbance for each compound was normalized to untreated control samples for each plate and calculated as a percent of the control. Cut-offs for “activating” and “inhibiting” compounds were set at 2-fold. Validation assays were performed for select compounds at a range of concentration doses.
Next, lipolysis assays were performed for all 111 compounds identified in the primary screen at three different concentrations, of which twenty-four were selected for further analysis based on their newness and/or reproducibility.

[2] = system: UCP1; test: Secondary screen, UCP1 transcript levels by qRT-PCR; format: cell-based, human; conditions: secondary screen of primary hits
Text: FIG. 8A is a scheme used for high-throughput screening (HTS). FIG. 8B is a scatter-plot of glycerol release for each compound assayed (n=3889) in an HTS screen. Data are shown as the percentage of glycerol released compared to untreated beige adipocytes (% of control). FIG. 8C is a computational analysis of preliminary hits identified in the HTS using BiNChE. FIG. 8D is a plot showing the results of a secondary hit validation of primary compounds performed by evaluating levels of UCP1 transcript by qRT-PCR. Unstimulated beige cells, selected adrenergic agonists, and potential new non-adrenergic beige fat activators identified in the primary screen are shown. Transcript levels were normalized to UCP1 levels in ADSCs, n=3 for each technical 20 replicate. *P<0.0.05, **P<0.01, ***P<0.005. FIGS. 8E and 8F are bar graphs showing secondary screening of known thermogenic activators. Transcript levels of UCP1 were assayed in unstimulated ADSCs and ADSC-derived beige adipocytes and following treatment with forskolin (FSK, 20 μM), isoproterenol (1, 10 μM) (8E) and Mirabegron (1, 10 and 25 μM) (8F). Transcript levels were determined by qRT-PCR. n=3 for each independent replicate. Data are mean+/−standard deviation. *P<0.0.05, **P<0.01.
Cells were washed with DPBS, lysed directly on the plate and used for RNA isolation with the E.Z.N.A Total RNA Kit (Omega, R6834-02) according to manufacturer instructions. RNA quantitation was performed with the Biotek Synergy 2 plate reader and cDNA was synthesized using 1 ug of RNA with the iScript cDNA Synthesis Kit (Bio-Rad, 1708841). The qRT-PCR was performed on a ViiA7 Real-Time PCR System (ThermoFisher) using a TaqMan Universal PCR Master Mix (ThermoFisher, 4324020) according to manufacturer instructions with the following TaqMan primer/probe sets (UCP1, Hs01084772_m1), DIO2, Hs00988260_ml, 18S rRNA, Hs03928985_g1). Each assay was performed in triplicate and normalized to 18S rRNA and graphed as mean+/−standard deviation.
To determine if hits identified in the first-round screen activated the thermogenic program, UCP1 transcript levels were used as a readout. This secondary screen incorporated adrenergic agonists, such as Mirabegron, isoproterenol and phenylephrine, and eighteen additional compounds with no reported function in thermogenic regulation (FIG. 8D, 8E, 8F). 18/25 (72%) of the lipolysis-activating compounds identified in the primary screen also activate the thermogenic program through UCP1. Twelve of these compounds have no reported adrenergic agonist activity and could potentially operate through different signaling mechanisms (FIG. 8D and Table 9).

| Structure (SMILES) | % of Control (1) ([1]; Conc. 2.2 (unit uncertain)) | % of Control (2) ([1]; Conc. 2.2 (unit uncertain)) | % of Control (3) ([1]; Conc. 2.2 (unit uncertain)) | % of Control (4) ([1]; Conc. 2.2 (unit uncertain)) | % of Control (1) ([1]; Conc. 6.7 (unit uncertain)) | % of Control (2) ([1]; Conc. 6.7 (unit uncertain)) | % of Control (3) ([1]; Conc. 6.7 (unit uncertain)) | % of Control (4) ([1]; Conc. 6.7 (unit uncertain)) | % of Control (1) ([1]; Conc. 20 (unit uncertain)) | % of Control (2) ([1]; Conc. 20 (unit uncertain)) | % of Control (3) ([1]; Conc. 20 (unit uncertain)) | % of Control (4) ([1]; Conc. 20 (unit uncertain)) | Activation of the thermogenic program (UCP1 transcript), in words [2] | further results |
| --- | --- | --- | --- | --- | --- | --- | --- | --- | --- | --- | --- | --- | --- | --- |
| COc1ccc(-c2cc3c(C)nc(N)nc3n([C@H]3CC[C@H](OCCO)CC3)c2=O)cn1 [PF-04691502] | 171.55 % of Control | 138.35 % of Control | 232.86 % of Control | 105.98 % of Control | 257.98 % of Control | 216.59 % of Control | 225.05 % of Control | 155.98 % of Control | 304.52 % of Control | 224.71 % of Control | 171.76 % of Control | 302.07 % of Control | activators in both rounds of screening |  |
| O=C1CN2Cc3c(ccc(Cl)c3Cl)N=C2N1 [Anagrelide HCl] |  |  |  |  |  |  |  |  |  |  |  |  | efficacy in beige cell activation | activity at 2.2 µM ([1]; read-out: % of Control (2)): 146%; activity at 2.2 µM ([1]; read-out: % of Control (4)): 144%; activity at 6.7 µM ([1]; read-out: % of Control (1)): 195%; activity at 6.7 µM ([1]; read-out: % of Control (2)): 268%; activity at 6.7 µM ([1]; read-out: % of Control (3)): 191%; activity at 6.7 µM ([1]; read-out: % of Control (4)): 156%; activity at 20 µM ([1]; read-out: % of Control (1)): 196%; activity at 20 µM ([1]; read-out: % of Control (2)): 183%; activity at 20 µM ([1]; read-out: % of Control (3)): 212%; activity at 20 µM ([1]; read-out: % of Control (4)): 161%; activity at 2200 µM ([1]; read-out: % of Control (1)): 125%; activity at 2200 µM ([1]; read-out: % of Control (3)): 124% |
| Cc1ccccc1N1CCN(S(=O)(=O)C[C@]23CC[C@H](C[C@@H]2NC(=O)[C@@H](N)CCS(C)(=O)=O)C3(C)C)CC1 [L-368, 899] | 196.9 % of Control | 128 % of Control | 118.57 % of Control | 91.72 % of Control | 185.48 % of Control | 151.88 % of Control | 130.11 % of Control | 148.51 % of Control | 143.81 % of Control | 179.29 % of Control | 192.97 % of Control | 166.21 % of Control | activators in both rounds of screening |  |
| CC1(C)C(=O)N(CCN2CCC(C(=O)c3ccc(F)cc3)CC2)c2ccccc21 [LY-310, 762] | 179.4 % of Control | 180.24 % of Control | 180.44 % of Control | 143.79 % of Control | 179.76 % of Control | 199.88 % of Control | 222.09 % of Control | 289.77 % of Control | 264.29 % of Control | 223.06 % of Control | 225.27 % of Control | 201.38 % of Control | activators in both rounds of screening |  |
